Structures can show the parent of a compound that is named as a salt. Where two headings read alike, the source gives them in different places.
T1: PKCμ (Homo sapiens, UniProt Q15139)
T1 sequence (Q15139 1-912): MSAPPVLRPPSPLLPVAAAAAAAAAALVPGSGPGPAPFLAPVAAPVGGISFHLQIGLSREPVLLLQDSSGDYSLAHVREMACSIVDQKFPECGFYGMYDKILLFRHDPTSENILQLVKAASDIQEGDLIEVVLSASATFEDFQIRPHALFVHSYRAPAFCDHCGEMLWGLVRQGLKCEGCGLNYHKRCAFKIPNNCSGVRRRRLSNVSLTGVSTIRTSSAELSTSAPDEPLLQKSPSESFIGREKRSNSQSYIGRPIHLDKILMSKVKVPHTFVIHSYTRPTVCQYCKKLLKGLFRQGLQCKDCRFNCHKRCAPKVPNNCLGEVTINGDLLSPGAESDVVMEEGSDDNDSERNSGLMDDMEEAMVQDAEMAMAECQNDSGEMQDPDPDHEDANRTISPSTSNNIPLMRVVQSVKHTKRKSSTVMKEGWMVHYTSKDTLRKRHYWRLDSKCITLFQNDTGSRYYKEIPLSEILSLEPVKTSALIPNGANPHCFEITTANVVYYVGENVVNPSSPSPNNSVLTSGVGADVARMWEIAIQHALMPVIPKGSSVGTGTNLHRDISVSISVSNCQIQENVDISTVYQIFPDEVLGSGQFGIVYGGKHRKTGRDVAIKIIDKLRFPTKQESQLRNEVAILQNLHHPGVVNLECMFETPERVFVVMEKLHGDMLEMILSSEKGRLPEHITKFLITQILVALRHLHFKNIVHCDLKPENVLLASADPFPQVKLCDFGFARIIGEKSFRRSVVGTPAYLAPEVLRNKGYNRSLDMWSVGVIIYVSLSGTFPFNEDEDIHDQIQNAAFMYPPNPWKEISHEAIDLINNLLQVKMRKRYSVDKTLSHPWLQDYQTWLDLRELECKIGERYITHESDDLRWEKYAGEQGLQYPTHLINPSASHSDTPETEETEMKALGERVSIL

B1: FGF10: mitogen (fibroblast growth factor) reported to be involved in pancreatic development, from R&D systems (protein, UniProt O15520 38-208, looked up)
Fibroblast growth factor 10: QALGQDMVSPEATNSSSSSFSSPSSAGRHVRSYNHLQGDVRWRKLFSFTKYFLKIEKNGKVSGTKKENCPYSILEITSVEIGVVAVKAINSNYYLAMNKKGKLYGSKEFNNDCKLKERIEENGYNTYASFNWQHNGRQMYVALNGKGAPRRGQKTRRKNTSAHFLPMVVHS

Assays:
[1] = tested on: HUES8-derived population (Pdx1+ cells); test: Pdx1 antibody staining of treated HUES8-derived population; format: cell-based, human; settings: for percentage of Pdx1+ cells, PKC agonists in the absence of ILV: HUES8-derived definitive endoderm population, 500 nM TPB or 14 nM PMA; for percentage of Pdx1+ cells, PKC antagonists in the presence of ILV: 300 nM ILV plus 1 μM BISI or 10 μM Gö 6983, 4 days
Description: (§1) To generate a starting population, HUES cells were cultured on MEF feeder cells until 80-90% confluent, then treated with 25 ng/ml Wnt3a (R&D systems)+100 ng/ml Activin A (R&D systems) in advanced RPMI (A-RPMI, Invitrogen) supplemented with 1×L-Glu and 1×PS for 1 day, and then 100 ng/ml Activin A in A-RPMI supplemented with 1×L-Glu, 1×PS and 0.2% FBS (Invitrogen). Two days later, the media was changed to 50 ng/ml FGF10 (R&D systems)+0.25 μM KAAD-CYC (Calbiochem) in A-RPMI supplemented with 1×L-Glu, 1×PS and 2% FBS and maintained for additional 2 days. Cells were then transferred to 50 ng/ml FGF10+0.25 μM KAAD-CYC+2 μM RA (Sigma) in DMEM supplemented with 1×L-Glu, 1×PS, 1×B27 (Invitrogen) and cultured for an additional 4 days. ILV was obtained from Axxora, KAAD-CYC, TPB, PMA, BISI, Gö 6983, U0126 and PD98059 were obtained from Calbiochem and RA were obtained from Sigma.
(§2) Cells were fixed with 10% formalin solution (Sigma) for 20 min at room temperature. Immunostaining was carried out with standard protocols. The following primary antibodies were used: goat anti-Pdx1 (1:500; R&D system); rabbit anti-FOXA2 (1:500; Upstate); rabbit anti-HNF6 (1:200; Santa Cruz Biotech); guinea pig anti-insulin (1:1000; Dako); rabbit anti-c-peptide (1:500; Linco); rabbit anti-amylase (1:200, Sigma); goat anti-HNF1β (1:100, Santa Cruz Biotech); and biotinylated DBA (1:400; Vector Lab). Alexa-488-, Alexa-555, and Alexa-647-conjugated donkey antibodies against mouse, rabbit, guinea pig and goat, and Pacific Blue conjugate-streptavidin (Invitrogen) were used at 1:300 dilution.
To determine whether PKC signaling is being activated in HUES-derived cells, HUES8-derived definitive endoderm population was treated with two PKC agonists, TPB ((2S,5S)-(E,E)-8-(5-(4-(trifluoromethyl)phenyl)-2,4-pentadienoylamino)benzolactam) and PMA (phorbol-12-myristate-13-acetate), in the absence of ILV. […] Furthermore, HUES8-derived population was treated with two PKC antagonists, BISI (Bisindolylmaleimide I) and Gö 6983, in the presence of ILV.
Experiments were performed to monitor downstream signaling by PKC. Since ERK signaling has been reported to be regulated by PKC (Ueda et al., 1996), the activity of ERK signaling was examined with Western blotting to detect the phosphorylation of ERK1/2 at Thr-202/Tyr-204.

[2] = tested on: HUES9-derived population (Pdx1+ cells); test: High throughput screen for compounds increasing Pdx1+ cells; format: cell-based, human; settings: HUES9-derived cells, 10 μM, 1 μM and 0.1 μM, four days
Description: as §1
For a high throughput screen, the starting material was hESCs (HUES9 cells) that were induced to pancreatic lineage using a slightly modified version of previously published protocols (D'Amour et al., 2006; Jiang et al., 2007), as described in Example 1. After 9 days of stepwise differentiation, a heterogeneous population of cells was generated containing cells that stained strongly, weakly or not at all with a Pdx1 antibody. Any cell that stained with the Pdx1 staining antibody was counted as Pdx1^+ cells regardless of staining intensity. Together, the Pdx1^+ cells comprises 5.1±1.8% of the total cell number.
To carry out the screen, the cells were trypsinized and plated on 804G-coated 384-well plates at 6000 cells/well using chemically defined media (DMEM supplemented with 2 mM L-Glu, 1×PS, 1×B27). After overnight incubation, compounds were screened by adding them to provide a final concentration of 10 μM, 1 μM and 0.1 μM. Four days later, the cells were stained with Pdx1 antibody and the plates were analyzed with Opera high content screening system (PerkinElmer).
The wells in which the percentage of Pdx1^+ cells is higher than present at day 1 and higher than day 5 treated with DMSO were selected as primary hits. Compounds that increase both the number and percentage of Pdx1^+ cells were picked as primary hits. Eleven compounds produced hits. (FIG. 7, Table I in FIG. 9 and formulas in FIG. 10). These eleven compounds were (−)-Indolactam V (FIG. 1c and Compound I in Table 1) boldine (Compound II), rotenone (Compound III), ethopropazine hydrochloride (Compound IV), cedrelone (Compound V), prieurianin (Compound VI), strophanthidin (Compound VII), trimeprazine tartrate (Compound VIII), terconazole (Compound IX), dimethisoquin hydrochloride (Compound X), harmine hydrochloride (Compound XI).
as §2

PKCμ = target: T1, PKCμ; settings: Gschwendt et al., 1996; cited from earlier work

Molecule	primary hits (increase both the number and percentage of Pdx1+ cells) [2]	also measured
CCCCCCCCCCCCCC(=O)O[C@@H]1[C@@H](C)[C@@]2(O)[C@@H](C=C(CO)C[C@]3(O)C(=O)C(C)=C[C@@H]23)[C@@H]2C(C)(C)[C@]12OC(C)=O [PMA, phorbol-12-myristate-13-acetate]	–	percentage of Pdx1+ cells, PKC agonists in the absence of ILV ([1]; 4 days): 21.3±4.0%
C=C1[C@@H]([C@@]2(C)[C@@H](OC(C)=O)CC(=O)O[C@](C)(COC(C)=O)[C@@H]2C(=O)OC)[C@@H](OC=O)[C@H](OC(=O)[C@H](O)[C@H](C)CC)[C@@]2(C)[C@H](c3ccoc3)CC(=O)[C@]12O [Compound VI, prieurianin]	hits	–
trimeprazine tartrate [Compound VIII]	hits	–
CCN(CC)C(C)CN1c2ccccc2Sc2ccccc21 (stereo not drawn) [Compound IV, ethopropazine hydrochloride]	hits	–
CC(C)[C@H]1C(=O)N[C@H](CO)Cc2cc(NC(=O)/C=C/C=C/c3ccc(C(F)(F)F)cc3)ccc2N1C [TPB, (2S,5S)-(E,E)-8-(5-(4-(trifluoromethyl)phenyl)-2,4-pentadienoylamino)benzolactam]	–	percentage of Pdx1+ cells, PKC agonists in the absence of ILV ([1]; 4 days): 15.4±2.9%
COc1ccc2c(c1)c(C1=C(c3c[nH]c4ccccc34)C(=O)NC1=O)cn2CCCN(C)C [Gö 6983]	–	suppression of PKCμ kinase activity (PKCμ): not effective; percentage of Pdx1+ cells, PKC antagonists in the presence of ILV ([1]; HUES8-derived population): 0.8±0.2%
COc1cccc(-c2cc(=O)c3ccccc3o2)c1N [PD098059]	–	percentage of Pdx1+ cells, MEK/ERK inhibitors together with ILV ([1]; 300 nM ILV plus 50 μM PD098059 or 10 μM U0126, 4 days): 0.4±0.2%
C=C(C)[C@H]1Cc2c(ccc3c2O[C@@H]2COc4cc(OC)c(OC)cc4[C@@H]2C3=O)O1 [Compound III, rotenone]	hits	–
CCCCc1cc2ccccc2c(OCCN(C)C)n1 [Compound X, dimethisoquin hydrochloride]	hits	–
C[C@]12CC[C@H]3[C@@H](CC[C@]4(O)C[C@@H](O)CC[C@]34C=O)[C@@]1(O)CC[C@@H]2C1=CC(=O)OC1 [Compound VII, strophanthidin]	hits	–
COc1cc2c(cc1O)C[C@H]1c3c(cc(O)c(OC)c3-2)CCN1C [Compound II, boldine]	hits	–
CC(C)N1CCN(c2ccc(OCC3COC(Cn4cncn4)(c4ccc(Cl)cc4Cl)O3)cc2)CC1 (stereo not drawn) [Compound IX, terconazole]	hits	–
CN(C)CCCn1cc(C2=C(c3c[nH]c4ccccc34)C(=O)NC2=O)c2ccccc21 [BISI, Bisindolylmaleimide I]	–	percentage of Pdx1+ cells, PKC antagonists in the presence of ILV ([1]; HUES8-derived population): 0.6±0.1%
COc1ccc2c(c1)[nH]c1c(C)nccc12.Cl [Compound XI, harmine hydrochloride]	hits	–
CC1(C)C(=O)C=C[C@@]2(C)C1=C(O)C(=O)[C@]1(C)[C@@H]2CC[C@@]2(C)[C@H](c3ccoc3)C[C@H]3O[C@]321 [Compound V, cedrelone]	hits	–
N#CC(=C(/N)Sc1ccccc1N)/C(C#N)=C(\N)Sc1ccccc1N [Compound U0126]	–	percentage of Pdx1+ cells, MEK/ERK inhibitors together with ILV [1]: 0.3±0.2%
B1	–	percentage of cells stained by Pdx1 antibody ([1]; HUES8-derived population, 4 days, 300 nM ILV and/or 50 ng/ml FGF10): 5.7±2.3%

— patent US9157062B2, “Compositions and methods for promoting the generation of PDX1+ pancreatic cells” (President and Fellows of Harvard College, priority 2008, dated 2015)
